Experimental data: patent publication US8183243B2, “Melanocortin receptor agonists” (LG Life Sciences Ltd., priority 2008, dated 2012)
pEC50: −log10 of the molar value.

These molecules were tested against T1, MC4R (Homo sapiens, UniProt P32245) (assay: MCR agonistic activity (luciferase assay / cAMP accumulation assay) on MC4R). Settings: HEK cell lines expressing MC4R; method A (CRE-luciferase) or B (cAMP accumulation), not said which; read-out: EC50 value, agonistic activity to MC4R (range per group of Examples).
T1 construct: expressed in transfected cells; host or cells: HEK (Human Embryonic Kidney) permanent expression cell line HEK MC4R-Luc, co-expressing CRE-luciferase
Assay type: cell-based
Procedure: Physiological activity of the compounds of the present invention was assessed by measuring agonistic activity as well as binding activity for melanocortin receptors (MCR) according to methods A and B explained as follows.
As one of the methods to measure MCR agonistic activity of the compound according to the present invention, the expression level of a marker gene (for example, luciferase) which increases proportionally according to the increase of cAMP content in the cell, was measured.
First, permanent expression HEK (Human Embryonic Kidney) cell lines (HEK MC1R-Luc, MC3R-Luc, MC4R-Luc or MC5R-Luc) expressing the MCR gene of each subtype together with luciferase gene (CRE-LUC) under the control of CRE (cAMP Response Element) were constructed. The above cell lines were incubated in an incubator with 6% CO2 atmosphere at 37° C. using selection medium, DMEM(Dulbecco's Modified Eagles Medium) containing 10% heat-inactivated fetal bovine serum (Gibco/BRL), 100 unit/ml, penicillin (Gibco/BRL), 100 unit/ml streptomycin (Gibco/BRL), and 200 μg/ml geneticin (G418) (Gibco/BRL). When the cell covered 70% of total surface of the culture dish with 100 mm diameter, the culture dish was rinsed one time with 10 ml Phosphate Buffered Saline(PBS) free of Ca^++ and Mg^++, and then 3 ml PBS solution containing 0.05% trypsin and 0.53 mM EDTA was added thereto. After the trypsin/EDTA solution was removed, the cell lines were incubated in an thermostatic incubator for 1 minute at 37° C., and resuspended in 10 ml selection medium and centrifuged for 5 minutes at 1500 rpm. The supernatant was discarded and the settled cells were resuspended in 5 ml selection medium free of Phenol Red. The resulting cell-suspension was plated onto each well of 96-well culture plates for Luminometer(Costar) with a concentration of 5×10^4 cell in 100 μl culture medium for each well and incubated in the incubator with 6% CO2 atmosphere at 37° C. for 18 hours. With MCR agonists (Example compounds) diluted stepwise using the above culture medium, the cells were treated under the condition of the final DMSO concentration not exceeding 1%, and incubated for 5 hours in the atmosphere of 6% CO2 at 37° C. Then, 50 μl Bright-Glo (Promega) was added to each well. After allowing the treated cells to be at room temperature for 15 minutes, luminescence was measured for each well by using luminometer (Victor). The level of luminescence induced by the stepwise-diluted agonist was converted to relative % value to those by the treatment of 10 nM NDP-MSH. The EC50 indicates the concentration of each agonist for inducing 50% of maximal luminescence by each agonist and this value was measured by a statistical software (Prizm).
B. cAMP Accumulation Assay
As another method to measure MCR agonistic activity of the compound according to the present invention, an increase of cAMP amount in the cell was measured.
First, permanent expression HEK (Human Embryonic Kidney) cell lines (HEK MC1R-Luc, MC3R-Luc, MC4R-Luc or MCSR-Luc) expressing the MCR gene of each subtype were plated onto each well of 24-well culture plates for Luminometer(Costar) with a concentration of 2×10^5 cell in 1 ml culture medium for each well, and then incubated in an incubator with 6% CO2 atmosphere at 37° C. for 24 hours. The medium was removed from each well followed by rinsing with 0.5 ml cold DMEM one time. With MCR agonists (Example compounds) diluted stepwise using 200 μl DMEM including 500 μM IBMX (isobutylmethylxanthine), the cells were treated under the condition of the final DMSO concentration not exceeding 1%, and incubated for 30 minutes in the atmosphere of 6% CO2 at 37° C. Then, the cAMP amount in each cell was measured using Amersham cAMP assay Kit (TRK432).
More specifically, 14.4 μl of 6M PCA (60%) was added to each well, and allowed to be in ice for 10 minutes, and 200 μl sample was taken from each well and transferred to microcentrifuge tube. […]

T1 sequence (P32245 whole entry, species assumed): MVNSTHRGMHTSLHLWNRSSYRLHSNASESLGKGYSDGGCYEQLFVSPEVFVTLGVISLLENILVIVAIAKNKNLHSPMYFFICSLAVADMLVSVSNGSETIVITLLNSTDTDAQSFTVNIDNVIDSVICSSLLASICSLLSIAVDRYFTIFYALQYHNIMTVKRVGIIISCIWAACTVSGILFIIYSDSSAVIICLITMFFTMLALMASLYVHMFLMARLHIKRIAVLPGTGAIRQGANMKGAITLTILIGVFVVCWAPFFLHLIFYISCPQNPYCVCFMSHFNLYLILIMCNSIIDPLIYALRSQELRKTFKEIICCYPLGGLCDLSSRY

Compound | pEC50
CN1CCN(C(=O)[C@H]2C[C@H](N(C(=O)[C@@H]3CCCO3)C3CCC(C)(C)CC3)CN2C(=O)[C@@H]2CN(C(C)(C)C)C[C@H]2c2ccc(Cl)cc2)CC1 [Example 34, (2S)-N-{(3S,5R)-1-{[(3S,4R)-1-tert-butyl-4-(4-chlorophenyl)pyrrolidin-3-yl]carbonyl}-5-[(4-methylpiperazin-1-yl)carbonyl]pyrrolidin-3-yl}-N-(4,4-dimethylcyclohexyl)tetrahydrofuran-2-carboxamide] | 8.00 to 10.00
CN1CCN(C(=O)[C@@H]2C[C@H](N(C(=O)[C@@H]3CCCO3)C3CCC(C)(C)CC3)CN2C(=O)[C@@H]2CN(C(C)(C)C)C[C@H]2c2ccc(F)cc2F)CC1 [Example 14, (2S)-N-{(3S,5S)-1-{[(3S,4R)-1-tert-butyl-4-(2,4-difluorophenyl)pyrrolidin-3-yl]carbonyl}-5-[(4-methylpiperazin-1-yl)carbonyl]pyrrolidin-3-yl}-N-(4,4-dimethylcyclohexyl)tetrahydrofuran-2-carboxamide] | 8.00 to 10.00
CN1CCN(C(=O)[C@@H]2C[C@H](N(C(=O)C(C)(C)CO)C3CCC(C)(C)CC3)CN2C(=O)[C@@H]2CN(C3CC3)C[C@H]2c2ccc(Cl)cc2)CC1 [Example 58, N-{(3S,5S)-1-{[(3S,4R)-4-(4-chlorophenyl)-1-cyclopropylpyrrolidin-3-yl]carbonyl}-5-[(4-methylpiperazin-1-yl)carbonyl]pyrrolidin-3-yl}-N-(4,4-dimethylcyclohexyl)-3-hydroxy-2,2-dimethylpropanamide] | 8.00 to 10.00
CN1CCN(C(=O)[C@@H]2C[C@H](N(C(=O)c3ccco3)c3ccc(F)cc3F)CN2C(=O)[C@@H]2CN(C(C)(C)C)C[C@H]2c2ccc(Cl)cc2)CC1 [Example 83, N-{(3S,5S)-1-{[(3S,4R)-1-tert-butyl-4-(4-chlorophenyl)pyrrolidin-3-yl]carbonyl}-5-[(4-methylpiperazin-1-yl)carbonyl]pyrrolidin-3-yl}-N-(2,4-difluorophenyl)-2-furamide] | 7.00 to 8.00
CN1CCN(C(=O)[C@@H]2C[C@H](N(C(=O)C(C)(C)C)[C@H]3CC[C@@H](C)CC3)CN2C(=O)[C@@H]2CN(C(C)(C)C)C[C@H]2c2ccc(Cl)cc2)CC1 [Example 17, N-{(3S,5S)-1-{[(3S,4R)-1-tert-butyl-4-(4-chlorophenyl)pyrrolidin-3-yl]carbonyl}5-[(4-methylpiperazin-1-yl)carbonyl]pyrrolidin-3-yl}-2,2-dimethyl-N-(cis-4-methylcyclohexyl)propanamide] | 8.00 to 10.00
CN1CCN(C(=O)[C@@H]2C[C@H](N(C(=O)[C@@H]3CCCO3)[C@H]3CC[C@@H](C)CC3)CN2C(=O)[C@@H]2CN(C(C)(C)C)C[C@H]2c2ccc(F)cc2F)CC1 [Example 21, (2S)-N-{(3S,5S)-1-{[(3S,4R)-1-tert-butyl-4-(2,4-difluorophenyl)pyrrolidin-3-yl]carbonyl}-5-[(4-methylpiperazin-1-yl)carbonyl]pyrrolidin-3-yl}-N-(cis-4-methylcyclohexyl)tetrahydrofuran-2-carboxamide] | 8.00 to 10.00

Other lines, results leading:

pEC50 | Compound
8.00 to 10.00 | CN1CCN(C(=O)[C@@H]2C[C@H](N(C(=O)C(C)(C)C)c3ccc(F)cc3F)CN2C(=O)[C@@H]2CN(C(C)(C)C)C[C@H]2c2ccc(Cl)cc2)CC1 [Example 80, N-{(3S,5S)-1-{[(3S,4R)-1-tert-butyl-4-(4-chlorophenyl)pyrrolidin-3-yl]carbonyl}-5-[(4-methylpiperazin-1-yl)carbonyl]pyrrolidin-3-yl}-N-(2,4-difluorophenyl)-2,2-dimethylpropanamide]
7.00 to 8.00 | CC(=O)N([C@H]1C[C@H](C(=O)N2CCN(C)CC2)N(C(=O)[C@@H]2CN(C(C)C)C[C@H]2c2ccc(Cl)cc2)C1)[C@H]1CC[C@@H](C)CC1 [Example 62, N-{(3S,5R)-1-{[(3S,4R)-4-(4-chlorophenyl)-1-isopropylpyrrolidin-3-yl]carbonyl}-5-[(4-methylpiperazin-1-yl)carbonyl]pyrrolidin-3-yl}-N-(cis-4-methylcyclohexyl)acetamide]
8.00 to 10.00 | CCN1CCN(C(=O)[C@@H]2C[C@H](N(C(C)=O)C3CCC(C)(C)CC3)CN2C(=O)[C@@H]2CN(C(C)(C)C)C[C@H]2c2ccc(Cl)cc2)CC1 [Example 8, N-{(3S,5S)-1-{[(3S,4R)-1-tert-butyl-4-(4-chlorophenyl)pyrrolidin-3-yl]carbonyl}-5-[(4-ethylpiperazin-1-yl)carbonyl]pyrrolidin-3-yl}-N-(4,4-dimethylcyclohexyl)acetamide]
8.00 to 10.00 | CC(C)C(=O)N(c1ccc(F)cc1F)[C@H]1C[C@@H](C(=O)N2CCNCC2)N(C(=O)[C@@H]2CN(C(C)(C)C)C[C@H]2c2ccc(Cl)cc2)C1 [Example 78, N-[(3S,5S)-1-{[(3S,4R)-1-tert-butyl-4-(4-chlorophenyl)pyrrolidin-3-yl]carbonyl}-5-(piperazin-1-ylcarbonyl)pyrrolidin-3-yl]-N-(2,4-difluorophenyl)-2-methylpropanamide]
8.00 to 10.00 | CN1CCN(C(=O)[C@@H]2C[C@H](N(C(=O)C(C)(C)CO)[C@H]3CC[C@@H](C)CC3)CN2C(=O)[C@@H]2CN(C3CC3)C[C@H]2c2ccc(F)cc2F)CC1 [Example 60, N-{(3S,5S)-1-{[(3S,4R)-1-cyclopropyl-4-(2,4-difluorophenyl)pyrrolidin-3-yl]carbonyl}-5-[(4-methylpiperazin-1-yl)carbonyl]pyrrolidin-3-yl}-N-(cis-4-methylcyclohexyl)-3-hydroxy-2,2-dimethylpropanamide]
5.00 to 6.00 | CN1CCN(C(=O)[C@@H]2C[C@H](N(C(=O)[C@@H]3CCCO3)[C@H]3CC[C@@H](C)CC3)CN2C(=O)[C@@H]2CN(C(C)(C)C)C[C@@H]2c2ccc(Cl)cc2)CC1 [Example 75, (2S)-N-{(3S,5S)-1-{[(3S,4S)-1-tert-butyl-4-(4-chlorophenyl)pyrrolidin-3-yl]carbonyl}-5-[(4-methylpiperazin-1-yl)carbonyl]pyrrolidin-3-yl}-N-(cis-4-methylcyclohexyl)tetrahydrofuran-2-carboxamide]
8.00 to 10.00 | CN1CCN(C(=O)[C@@H]2C[C@H](N(C(=O)C(C)(C)C)C3CCC(F)(F)CC3)CN2C(=O)[C@@H]2CN(C3CCOCC3)C[C@H]2c2ccc(Cl)cc2)CC1 [Example 50, N-{(3S,5S)-1-{[(3S,4R)-4-(4-chlorophenyl)-1-(tetrahydro-2H-pyran-4-yl)pyrrolidin-3-yl]carbonyl}-5-[(4-methylpiperazin-1-yl)carbonyl]pyrrolidin-3-yl}-N-(4,4-difluorocyclohexyl)-2,2-dimethylpropanamide]
7.00 to 8.00 | CN1CCN(C(=O)[C@@H]2C[C@H](N(C(=O)[C@@H]3CCCO3)C3CCC(F)(F)CC3)CN2C(=O)[C@@H]2CN(C3CCOCC3)C[C@H]2c2ccc(Cl)cc2)CC1 [Example 51, (2S)-N-{(3S,5S)-1-{[(3S,4R)-4-(4-chlorophenyl)-1-(tetrahydro-2H-pyran-4-yl)pyrrolidin-3-yl]carbonyl}-5-[(4-methylpiperazin-1-yl)carbonyl]pyrrolidin-3-yl}-N-(4,4-difluorocyclohexyl)tetrahydrofuran-2-carboxamide]
8.00 to 10.00 | CN1CCN(C(=O)[C@@H]2C[C@H](N(C(=O)C(C)(C)C)C3CCC(F)(F)CC3)CN2C(=O)[C@@H]2CN(C(C)(C)C)C[C@H]2c2ccc(F)cc2F)CC1 [Example 30, N-{(3S,5S)-1-{[(3S,4R)-1-tert-butyl-4-(2,4-difluorophenyl)pyrrolidin-3-yl]carbonyl}-5-[(4-methylpiperazin-1-yl)carbonyl]pyrrolidin-3-yl}-N-(4,4-difluorocyclohexyl)-2,2-dimethylpropanamide]
